From ChEMBL document CHEMBL4507263, “Data for DCP probe BAY-474” (2021)

Experiments:
[1] = target: Protein kinase C gamma type (Homo sapiens) (UniProt P05129); experiment: PKCgamma(h) Millipore kinase activity assay; conditions: Compound concentration 1.0 uM
[2] = target: Dual specificity mitogen-activated protein kinase kinase 6 (Homo sapiens) (UniProt P52564); experiment: MKK6 (h) Millipore kinase activity assay; conditions: Compound concentration 1.0 uM
Homo sapiens = species: Homo sapiens; experiment: Inhibition of Nicotinic Acetylcholine at compound concentration of 10.0 uM in the Eurofins-Panlabs radioligand binding assay (Eurofins_assay_258590); type: protein-complex assay; conditions: Compound concentration 10.0 uM
[3] = target: T1, Muscarinic acetylcholine receptor M1 (Homo sapiens) (UniProt P11229); conditions: Compound concentration 10.0 uM
T1 sequence (whole entry): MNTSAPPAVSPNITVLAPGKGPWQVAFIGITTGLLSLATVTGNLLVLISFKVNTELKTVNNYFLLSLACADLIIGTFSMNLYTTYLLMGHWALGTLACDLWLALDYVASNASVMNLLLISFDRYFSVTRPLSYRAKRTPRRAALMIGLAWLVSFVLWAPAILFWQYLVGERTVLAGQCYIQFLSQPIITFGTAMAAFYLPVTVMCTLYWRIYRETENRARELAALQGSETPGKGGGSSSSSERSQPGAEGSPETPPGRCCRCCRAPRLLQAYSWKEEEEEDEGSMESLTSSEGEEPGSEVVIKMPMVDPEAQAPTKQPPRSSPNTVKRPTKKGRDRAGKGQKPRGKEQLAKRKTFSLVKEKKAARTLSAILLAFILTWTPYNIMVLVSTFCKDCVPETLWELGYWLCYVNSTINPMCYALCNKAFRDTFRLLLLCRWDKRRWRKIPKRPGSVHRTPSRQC

[4] = target: Serine/threonine-protein kinase D1 (Homo sapiens) (UniProt Q15139); experiment: PKCmu (h) Millipore kinase activity assay; conditions: Compound concentration 1.0 uM
[5] = target: Serine/threonine-protein kinase WNK3 (Homo sapiens) (UniProt Q9BYP7); experiment: WNK3 (h) Millipore kinase activity assay; conditions: Compound concentration 1.0 uM
Sequence of Serine/threonine-protein kinase WNK3 (Homo sapiens) (Q9BYP7 whole entry): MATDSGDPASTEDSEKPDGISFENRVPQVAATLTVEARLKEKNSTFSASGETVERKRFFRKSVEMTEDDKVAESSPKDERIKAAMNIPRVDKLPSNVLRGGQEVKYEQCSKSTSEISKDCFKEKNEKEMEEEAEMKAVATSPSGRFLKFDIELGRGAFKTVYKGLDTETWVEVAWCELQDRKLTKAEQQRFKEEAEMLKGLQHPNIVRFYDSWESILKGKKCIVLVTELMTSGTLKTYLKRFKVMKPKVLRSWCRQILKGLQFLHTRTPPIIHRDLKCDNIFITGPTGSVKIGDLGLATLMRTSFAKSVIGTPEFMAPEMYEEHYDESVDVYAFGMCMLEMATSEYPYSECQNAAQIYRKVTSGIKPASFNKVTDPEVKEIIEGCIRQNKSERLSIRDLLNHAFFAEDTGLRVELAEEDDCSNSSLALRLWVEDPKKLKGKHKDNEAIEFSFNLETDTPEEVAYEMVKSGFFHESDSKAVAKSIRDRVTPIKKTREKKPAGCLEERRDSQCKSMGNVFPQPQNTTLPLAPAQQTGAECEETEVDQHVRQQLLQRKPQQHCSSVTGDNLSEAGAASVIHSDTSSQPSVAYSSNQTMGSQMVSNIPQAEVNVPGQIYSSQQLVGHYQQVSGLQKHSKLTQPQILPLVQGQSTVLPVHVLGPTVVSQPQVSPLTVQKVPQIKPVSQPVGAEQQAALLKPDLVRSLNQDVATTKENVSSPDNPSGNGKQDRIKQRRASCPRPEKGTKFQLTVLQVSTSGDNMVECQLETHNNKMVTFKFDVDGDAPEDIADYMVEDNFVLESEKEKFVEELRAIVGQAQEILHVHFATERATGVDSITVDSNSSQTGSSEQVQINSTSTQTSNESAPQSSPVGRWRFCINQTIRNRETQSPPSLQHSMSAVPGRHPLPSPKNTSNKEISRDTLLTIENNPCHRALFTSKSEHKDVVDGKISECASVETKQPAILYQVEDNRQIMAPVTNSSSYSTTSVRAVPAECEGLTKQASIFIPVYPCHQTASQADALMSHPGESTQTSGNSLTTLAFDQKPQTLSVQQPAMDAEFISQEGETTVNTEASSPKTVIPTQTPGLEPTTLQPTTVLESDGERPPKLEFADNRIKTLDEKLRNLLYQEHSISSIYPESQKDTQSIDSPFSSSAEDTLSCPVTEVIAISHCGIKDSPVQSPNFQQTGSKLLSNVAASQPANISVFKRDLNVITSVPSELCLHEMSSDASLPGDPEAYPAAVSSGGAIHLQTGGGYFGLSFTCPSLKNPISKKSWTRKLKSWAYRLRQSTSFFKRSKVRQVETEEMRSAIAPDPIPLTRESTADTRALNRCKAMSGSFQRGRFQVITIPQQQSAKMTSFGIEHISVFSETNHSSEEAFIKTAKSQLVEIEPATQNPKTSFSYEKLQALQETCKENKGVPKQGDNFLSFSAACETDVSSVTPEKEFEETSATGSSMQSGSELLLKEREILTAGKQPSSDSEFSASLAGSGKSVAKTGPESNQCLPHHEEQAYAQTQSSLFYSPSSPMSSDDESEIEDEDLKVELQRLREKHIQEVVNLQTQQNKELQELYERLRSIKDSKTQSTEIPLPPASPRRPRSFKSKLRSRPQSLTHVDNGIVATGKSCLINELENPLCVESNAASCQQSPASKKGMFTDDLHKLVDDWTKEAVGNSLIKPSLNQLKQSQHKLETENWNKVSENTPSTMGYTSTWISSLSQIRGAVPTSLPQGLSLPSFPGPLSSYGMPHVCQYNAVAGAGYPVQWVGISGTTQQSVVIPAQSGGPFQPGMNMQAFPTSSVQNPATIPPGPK

[6] = target: Fibroblast growth factor receptor 2 (Homo sapiens) (UniProt P21802); experiment: FGFR2 (h) Millipore kinase activity assay; conditions: Compound concentration 1.0 uM
[7] = target: Interleukin-1 receptor-associated kinase 4 (Homo sapiens) (UniProt Q9NWZ3); experiment: IRAK4 (h) Millipore kinase activity assay; conditions: Compound concentration 1.0 uM
[8] = target: Tyrosine-protein kinase ZAP-70 (Homo sapiens) (UniProt P43403); experiment: ZAP-70 (h) Millipore kinase activity assay; conditions: Compound concentration 1.0 uM
[9] = target: Dual specificity protein kinase CLK3 (Homo sapiens) (UniProt P49761); experiment: CLK3 (h) Millipore kinase activity assay; conditions: Compound concentration 1.0 uM
[10] = target: Serine/threonine-protein kinase Nek6 (Homo sapiens) (UniProt Q9HC98); experiment: NEK6 (h) Millipore kinase activity assay; conditions: Compound concentration 1.0 uM
[11] = target: Histamine H1 receptor (Homo sapiens) (UniProt P35367); conditions: Compound concentration 10.0 uM
[12] = target: Protein kinase C beta type (Homo sapiens) (UniProt P05771); experiment: PKCbetaI (h) Millipore kinase activity assay; conditions: Compound concentration 1.0 uM
[13] = target: Ribosomal protein S6 kinase alpha-6 (Homo sapiens) (UniProt Q9UK32); conditions: Compound concentration 1000.0 nM
[14] = target: Myosin-IIIb (Homo sapiens) (UniProt Q8WXR4); conditions: Compound concentration 1000.0 nM
[15] = target: Homeodomain-interacting protein kinase 3 (Homo sapiens) (UniProt Q9H422); conditions: Compound concentration 1000.0 nM
[16] = target: Tyrosine-protein kinase Tec (Homo sapiens) (UniProt P42680); conditions: Compound concentration 1000.0 nM
Sequence of Tyrosine-protein kinase Tec (Homo sapiens) (P42680 whole entry): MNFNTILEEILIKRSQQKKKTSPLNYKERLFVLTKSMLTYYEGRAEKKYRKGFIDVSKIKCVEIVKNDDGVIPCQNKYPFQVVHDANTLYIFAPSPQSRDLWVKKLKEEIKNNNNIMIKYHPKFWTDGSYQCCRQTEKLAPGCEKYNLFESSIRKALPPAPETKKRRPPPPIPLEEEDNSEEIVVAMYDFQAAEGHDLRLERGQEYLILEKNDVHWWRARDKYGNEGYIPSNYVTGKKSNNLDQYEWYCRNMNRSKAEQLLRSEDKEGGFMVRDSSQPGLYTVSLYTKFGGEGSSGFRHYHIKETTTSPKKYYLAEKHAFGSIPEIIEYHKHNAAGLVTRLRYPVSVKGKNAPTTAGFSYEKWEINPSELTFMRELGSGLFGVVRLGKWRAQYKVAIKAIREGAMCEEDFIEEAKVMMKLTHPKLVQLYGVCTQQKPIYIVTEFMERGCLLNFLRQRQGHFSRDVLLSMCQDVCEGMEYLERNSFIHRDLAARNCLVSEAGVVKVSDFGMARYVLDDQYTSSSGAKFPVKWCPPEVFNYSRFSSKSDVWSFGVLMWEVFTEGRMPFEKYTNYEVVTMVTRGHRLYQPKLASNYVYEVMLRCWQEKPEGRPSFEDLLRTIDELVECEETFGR

[17] = target: NUAK family SNF1-like kinase 1 (Homo sapiens) (UniProt O60285); conditions: Compound concentration 1000.0 nM
[18] = target: Calcium-dependent protein kinase 1 (Plasmodium falciparum) (UniProt P62344); conditions: Compound concentration 1000.0 nM
[19] = target: Serine/threonine-protein kinase TAO2 (Homo sapiens) (UniProt Q9UL54); conditions: Compound concentration 1000.0 nM
[20] = target: AP2-associated protein kinase 1 (Homo sapiens) (UniProt Q2M2I8); conditions: Compound concentration 1000.0 nM
[21] = target: Serine/threonine-protein kinase LATS1 (Homo sapiens) (UniProt O95835); conditions: Compound concentration 1000.0 nM
[22] = target: Serine/threonine-protein kinase 32A (Homo sapiens) (UniProt Q8WU08); conditions: Compound concentration 1000.0 nM
[23] = target: Bone morphogenetic protein receptor type-2 (Homo sapiens) (UniProt Q13873); conditions: Compound concentration 1000.0 nM
[24] = target: Sodium-dependent noradrenaline transporter (Homo sapiens) (UniProt P23975); conditions: Compound concentration 10.0 uM
[25] = target: MAP kinase-interacting serine/threonine-protein kinase 1 (Homo sapiens) (UniProt Q9BUB5); conditions: Compound concentration 1000.0 nM
[26] = target: Interferon-induced, double-stranded RNA-activated protein kinase (Homo sapiens) (UniProt P19525); conditions: Compound concentration 1000.0 nM
[27] = target: Cyclin-G-associated kinase (Homo sapiens) (UniProt O14976); conditions: Compound concentration 1000.0 nM
[28] = target: Serine/threonine-protein kinase WNK1 (Homo sapiens) (UniProt Q9H4A3); conditions: Compound concentration 1000.0 nM
Sequence of Serine/threonine-protein kinase WNK1 (Homo sapiens) (Q9H4A3 whole entry, looked up): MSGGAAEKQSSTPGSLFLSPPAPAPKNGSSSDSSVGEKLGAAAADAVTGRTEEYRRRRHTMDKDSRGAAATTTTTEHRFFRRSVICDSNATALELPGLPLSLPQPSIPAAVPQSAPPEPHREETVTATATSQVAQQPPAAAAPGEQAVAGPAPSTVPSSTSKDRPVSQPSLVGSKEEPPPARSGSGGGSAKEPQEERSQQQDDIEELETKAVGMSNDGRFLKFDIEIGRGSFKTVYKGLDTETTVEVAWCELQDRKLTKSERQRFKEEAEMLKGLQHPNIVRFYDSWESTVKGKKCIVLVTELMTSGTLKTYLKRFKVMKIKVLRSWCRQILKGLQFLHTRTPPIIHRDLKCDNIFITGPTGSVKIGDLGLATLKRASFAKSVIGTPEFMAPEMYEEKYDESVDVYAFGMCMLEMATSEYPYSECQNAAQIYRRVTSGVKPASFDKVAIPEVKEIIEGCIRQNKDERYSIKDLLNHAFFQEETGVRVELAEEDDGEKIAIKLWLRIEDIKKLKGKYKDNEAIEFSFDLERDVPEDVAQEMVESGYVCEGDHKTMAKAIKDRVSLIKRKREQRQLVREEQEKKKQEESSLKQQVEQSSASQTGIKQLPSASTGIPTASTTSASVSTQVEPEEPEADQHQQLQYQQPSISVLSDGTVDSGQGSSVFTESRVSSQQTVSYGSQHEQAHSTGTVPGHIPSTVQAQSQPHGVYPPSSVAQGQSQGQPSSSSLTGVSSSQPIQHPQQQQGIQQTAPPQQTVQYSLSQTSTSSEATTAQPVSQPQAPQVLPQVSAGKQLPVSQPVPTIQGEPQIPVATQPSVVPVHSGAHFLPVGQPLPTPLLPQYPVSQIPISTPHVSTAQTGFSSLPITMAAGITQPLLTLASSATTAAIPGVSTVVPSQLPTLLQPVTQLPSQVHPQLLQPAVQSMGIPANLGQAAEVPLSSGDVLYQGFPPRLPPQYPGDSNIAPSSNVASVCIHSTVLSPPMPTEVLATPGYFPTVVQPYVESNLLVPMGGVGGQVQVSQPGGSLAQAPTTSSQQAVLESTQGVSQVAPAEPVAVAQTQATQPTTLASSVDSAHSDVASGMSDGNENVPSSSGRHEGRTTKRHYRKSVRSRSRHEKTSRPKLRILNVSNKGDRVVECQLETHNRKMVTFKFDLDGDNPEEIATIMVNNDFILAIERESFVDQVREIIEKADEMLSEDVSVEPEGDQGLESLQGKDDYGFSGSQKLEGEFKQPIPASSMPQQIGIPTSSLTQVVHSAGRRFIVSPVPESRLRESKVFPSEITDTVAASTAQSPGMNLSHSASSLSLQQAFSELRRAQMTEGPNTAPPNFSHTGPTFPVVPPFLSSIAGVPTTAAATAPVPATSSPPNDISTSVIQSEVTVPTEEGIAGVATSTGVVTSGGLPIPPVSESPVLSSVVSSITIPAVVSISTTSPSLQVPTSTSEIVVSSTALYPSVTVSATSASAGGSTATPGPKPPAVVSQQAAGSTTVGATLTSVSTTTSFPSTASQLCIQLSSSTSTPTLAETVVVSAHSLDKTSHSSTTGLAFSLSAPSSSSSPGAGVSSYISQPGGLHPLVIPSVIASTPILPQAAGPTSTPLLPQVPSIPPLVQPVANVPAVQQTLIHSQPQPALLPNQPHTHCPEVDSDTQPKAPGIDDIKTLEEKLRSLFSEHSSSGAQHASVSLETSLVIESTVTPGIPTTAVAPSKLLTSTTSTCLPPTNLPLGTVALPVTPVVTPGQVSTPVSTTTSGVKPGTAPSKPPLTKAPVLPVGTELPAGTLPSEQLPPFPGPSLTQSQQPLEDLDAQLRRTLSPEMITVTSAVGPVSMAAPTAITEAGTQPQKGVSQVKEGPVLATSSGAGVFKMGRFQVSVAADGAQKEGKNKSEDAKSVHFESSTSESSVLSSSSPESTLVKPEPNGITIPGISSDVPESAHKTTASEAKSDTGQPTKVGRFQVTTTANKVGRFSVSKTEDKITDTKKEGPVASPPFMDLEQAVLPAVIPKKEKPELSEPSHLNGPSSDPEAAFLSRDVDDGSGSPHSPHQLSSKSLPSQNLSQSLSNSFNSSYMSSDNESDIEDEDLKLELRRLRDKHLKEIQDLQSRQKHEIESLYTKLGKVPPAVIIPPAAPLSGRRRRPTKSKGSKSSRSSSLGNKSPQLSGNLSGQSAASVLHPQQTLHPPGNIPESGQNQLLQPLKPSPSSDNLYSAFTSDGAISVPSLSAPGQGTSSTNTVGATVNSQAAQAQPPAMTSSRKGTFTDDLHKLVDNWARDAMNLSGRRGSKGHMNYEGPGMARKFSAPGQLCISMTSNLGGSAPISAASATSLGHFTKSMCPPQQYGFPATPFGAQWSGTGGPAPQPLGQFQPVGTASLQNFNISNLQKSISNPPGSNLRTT

[29] = target: Serine/threonine-protein kinase 32B (Homo sapiens) (UniProt Q9NY57); conditions: Compound concentration 1000.0 nM
[30] = target: Serine/threonine-protein kinase mTOR (Homo sapiens) (UniProt P42345); conditions: Compound concentration 1000.0 nM
[31] = tested on: Tyrosine-protein kinase ABL1 (Homo sapiens), P00519 [H396P]; conditions: Compound concentration 1000.0 nM
[32] = target: Cyclin-dependent kinase 19 (Homo sapiens) (UniProt Q9BWU1); conditions: Compound concentration 1000.0 nM

Sequence of Dual specificity mitogen-activated protein kinase kinase 6 (Homo sapiens) (P52564 whole entry): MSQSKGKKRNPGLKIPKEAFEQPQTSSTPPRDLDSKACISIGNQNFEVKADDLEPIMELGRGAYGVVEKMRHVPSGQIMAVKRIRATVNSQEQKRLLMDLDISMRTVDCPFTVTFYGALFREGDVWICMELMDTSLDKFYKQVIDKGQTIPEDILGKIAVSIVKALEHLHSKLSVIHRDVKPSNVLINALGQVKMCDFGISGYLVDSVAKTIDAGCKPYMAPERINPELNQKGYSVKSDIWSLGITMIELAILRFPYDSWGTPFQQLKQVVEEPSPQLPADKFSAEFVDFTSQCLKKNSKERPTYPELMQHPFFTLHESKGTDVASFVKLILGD

CC1=C(C#N)C(c2ccc3[nH]nc(C)c3c2)C(C#N)=C(C)N1 [BAY-474]
inactive: inhibition [1] 18% | inhibition [2] 5% | inhibition (Homo sapiens) -1% | inhibition [3] 0% | inhibition [4] 15% | inhibition [5] -5% | inhibition [6] 17% | inhibition [7] 0% | inhibition [8] 12% | inhibition [9] -1% | inhibition [10] -10% | inhibition [11] 17.7% | inhibition [12] -4%

CC1=C(C#N)[C@@H](c2ccc3[nH]nc(C)c3c2)C(C#N)=C(c2ccc(Cl)cc2)N1 [BAY-827]
inactive: residual activity [13] 100% | residual activity [14] 78% | residual activity [15] 89.5% | residual activity [16] 100% | residual activity [17] 100% | residual activity [18] 100% | residual activity [19] 100% | residual activity [20] 100% | residual activity [21] 100% | residual activity [22] 100% | residual activity [23] 100% | inhibition [24] 8.56% | residual activity [25] 100% | residual activity [26] 74.1% | residual activity [27] 100% | residual activity [28] 100% | residual activity [29] 100% | residual activity [30] 79.6% | residual activity [31] 79.9% | residual activity [32] 66.8%
